In US4914187A, “Ester derivatives of antibiotic L 17046” (Gruppo Lepetit S.p.A, priority 1989, dated 1990):
Values after ≈ are worked out from the molar mass of the structure shown.

Experiments:
S. aureus ATCC 6538 = experiment: agar-dilution MIC test; assay type: cell-based; settings: 18-24 h at 37° C.
Experimental: (§1) Isosensitest broth (Oxoid) and Todd-Hewitt broth (Difco) are used for growing staphylococci and streptococci, respectively. Broth cultures are diluted so that the final inoculum is about 10^4 colony forming units/ml (CFU/ml).

[1] = system: S. epidermidis ATCC 12228; experiment: agar-dilution MIC test; assay type: cell-based
Experimental: as §1

S. faecalis ATCC 7080 = experiment: agar-dilution MIC test; assay type: cell-based
Experimental: as §1

S. pneumoniae UC 41 = experiment: agar-dilution MIC test; assay type: cell-based
Experimental: as §1

[2] = system: S. pyogenes C 203 SKF 13400; experiment: agar-dilution MIC test; assay type: cell-based
Experimental: as §1

S. aureus TOUR = experiment: agar-dilution MIC test; assay type: cell-based
Text: Isosensitest broth (Oxoid) and Todd-Hewitt broth (Difco) are used for growing staphylococci and streptococci, respectively. […]

E. coli SKF 12140 = experiment: agar-dilution MIC test; assay type: cell-based
pKa by titration = assay type: physicochemical; settings: methylcellulose ®/water 4:1 (v/v), excess 0.01 M hydrogen chloride, titrated with 0.01 M NaOH
Experimental: ^(c) the samples are dissolved in methylcellulose ®/water 4:1
(v/v), an excess of 0.01 M hydrogen chloride in the same mixture is added
thereto and the resulting solution is titrated with 0.01 M NaOH in the […]

[3] = S. aureus TOUR + 30% bovine serum

MIC (S. aureus ATCC 6538)	MIC [1]	MIC (S. faecalis ATCC 7080)	MIC (S. pneumoniae UC 41)	MIC [2]	MIC (S. aureus TOUR; S. aureus TOUR (10^3 CFU/ml))	MIC (S. aureus TOUR; S. aureus TOUR (10^6 CFU/ml))	MIC (S. aureus TOUR; [3])	MIC (E. coli SKF 12140)	pKa (pKa by titration)	Compound
0.25 µg/mL	0.016 µg/mL	0.5 µg/mL	0.5 µg/mL	0.5 µg/mL	0.25 µg/mL	0.5 µg/mL	0.5 µg/mL	128 µg/mL	6.68	CCOC(=O)C1NC(=O)C2NC(=O)C(NC(=O)C3NC(=O)C4NC(=O)C(Cc5ccc(c(Cl)c5)Oc5cc3cc(c5O)Oc3ccc(cc3Cl)C2O[C@@H]2O[C@H](CO)[C@@H](O)[C@H](O)[C@H]2NC(C)=O)NC(=O)C(N)c2ccc(O)c(c2)Oc2cc(O)cc4c2)c2ccc(O)c(c2)-c2c(O)cc(O)cc21.Cl (some centres unmarked) [Example 2, antibiotic L 17046 ethyl ester, hydrochloride]
0.25 µg/mL	0.016 µg/mL	0.5 µg/mL	0.5 µg/mL	0.25 µg/mL	0.125 µg/mL	0.25 µg/mL	0.5 µg/mL	128 µg/mL	6.65	CCCCOC(=O)C1NC(=O)C2NC(=O)C(NC(=O)C3NC(=O)C4NC(=O)C(Cc5ccc(c(Cl)c5)Oc5cc3cc(c5O)Oc3ccc(cc3Cl)C2O[C@@H]2O[C@H](CO)[C@@H](O)[C@H](O)[C@H]2NC(C)=O)NC(=O)C(N)c2ccc(O)c(c2)Oc2cc(O)cc4c2)c2ccc(O)c(c2)-c2c(O)cc(O)cc21.Cl (some centres unmarked) [Example 3, antibiotic L 17046 n-butyl ester, hydrochloride]
0.25 µg/mL	0.064 µg/mL	0.5 µg/mL	0.5 µg/mL	0.25 µg/mL	0.25 µg/mL	0.5 µg/mL	0.5 µg/mL	128 µg/mL	6.67	CC(=O)N[C@H]1[C@H](OC2c3ccc(c(Cl)c3)Oc3cc4cc(c3O)Oc3ccc(cc3Cl)CC3NC(=O)C(N)c5ccc(O)c(c5)Oc5cc(O)cc(c5)C(NC3=O)C(=O)NC4C(=O)NC3C(=O)NC2C(=O)NC(C(=O)OCCCl)c2cc(O)cc(O)c2-c2cc3ccc2O)O[C@H](CO)[C@@H](O)[C@@H]1O.Cl (some centres unmarked) [Example 4, antibiotic L 17046 2-chloroethyl ester, hydrochloride]
0.25 µg/mL	0.064 µg/mL	0.25 µg/mL	0.125 µg/mL	0.25 µg/mL	0.125 µg/mL	0.125 µg/mL	0.5 µg/mL	128 µg/mL	6.66	CC(=O)N[C@H]1[C@H](OC2c3ccc(c(Cl)c3)Oc3cc4cc(c3O)Oc3ccc(cc3Cl)CC3NC(=O)C(N)c5ccc(O)c(c5)Oc5cc(O)cc(c5)C(NC3=O)C(=O)NC4C(=O)NC3C(=O)NC2C(=O)NC(C(=O)OCCCCCl)c2cc(O)cc(O)c2-c2cc3ccc2O)O[C@H](CO)[C@@H](O)[C@@H]1O.Cl (some centres unmarked) [Example 5, antibiotic L 17046 4-chlorobutyl ester, hydrochloride]
–	0.063 µg/mL (≈ 0.0418 µM)	0.25 µg/mL (≈ 0.166 µM)	0.5 µg/mL (≈ 0.332 µM)	0.125 µg/mL (≈ 0.083 µM)	0.125 µg/mL (≈ 0.083 µM)	0.25 µg/mL (≈ 0.166 µM)	4 µg/mL	64 µg/mL (≈ 42.5 µM)	–	CC(=O)N[C@H]1[C@H](OC2c3ccc(c(Cl)c3)Oc3cc4cc(c3O)Oc3ccc(cc3Cl)CC3NC(=O)C(N)c5ccc(O)c(c5)Oc5cc(O)cc(c5)C(NC3=O)C(=O)NC4C(=O)NC3C(=O)NC2C(=O)NC(C(=O)OCc2ccc(C)cc2)c2cc(O)cc(O)c2-c2cc3ccc2O)O[C@H](CO)[C@@H](O)[C@@H]1O (some centres unmarked) [Example 10, antibiotic L 17046 (4-methyl)-benzyl ester]

Compound	MIC (S. aureus ATCC 6538)	MIC [1]	MIC (S. faecalis ATCC 7080)	MIC (S. pneumoniae UC 41)	MIC [2]	MIC (S. aureus TOUR; S. aureus TOUR (10^3 CFU/ml))	MIC (S. aureus TOUR; S. aureus TOUR (10^6 CFU/ml))	MIC (S. aureus TOUR; [3])	MIC (E. coli SKF 12140)	pKa (pKa by titration)
COC(=O)C1NC(=O)C2NC(=O)C(NC(=O)C3NC(=O)C4NC(=O)C(Cc5ccc(c(Cl)c5)Oc5cc3cc(c5O)Oc3ccc(cc3Cl)C2O[C@@H]2O[C@H](CO)[C@@H](O)[C@H](O)[C@H]2NC(C)=O)NC(=O)C(N)c2ccc(O)c(c2)Oc2cc(O)cc4c2)c2ccc(O)c(c2)-c2c(O)cc(O)cc21.Cl (some centres unmarked) [Example 1, antibiotic L 17046 methyl ester, hydrochloride]	0.125 µg/mL	0.016 µg/mL	0.5 µg/mL	0.5 µg/mL	0.5 µg/mL	0.125 µg/mL	0.5 µg/mL	0.25 µg/mL	128 µg/mL	6.70
CC(=O)N[C@H]1[C@H](OC2c3ccc(c(Cl)c3)Oc3cc4cc(c3O)Oc3ccc(cc3Cl)CC3NC(=O)C(N)c5ccc(O)c(c5)Oc5cc(O)cc(c5)C(NC3=O)C(=O)NC4C(=O)NC3C(=O)NC2C(=O)NC(C(=O)OCc2ccccc2)c2cc(O)cc(O)c2-c2cc3ccc2O)O[C@H](CO)[C@@H](O)[C@@H]1O.O=C(O)C(F)(F)F (some centres unmarked) [Example 8, antibiotic L 17046 benzyl ester trifluoroacetate]	–	0.063 µg/mL	0.125 µg/mL	0.25 µg/mL	0.125 µg/mL	0.125 µg/mL	0.125 µg/mL	4 µg/mL	64 µg/mL	–
CC(=O)N[C@H]1[C@H](OC2c3ccc(c(Cl)c3)Oc3cc4cc(c3O)Oc3ccc(cc3Cl)CC3NC(=O)C(N)c5ccc(O)c(c5)Oc5cc(O)cc(c5)C(NC3=O)C(=O)NC4C(=O)NC3C(=O)NC2C(=O)NC(C(=O)OCCO)c2cc(O)cc(O)c2-c2cc3ccc2O)O[C@H](CO)[C@@H](O)[C@@H]1O.O=C(O)C(F)(F)F (some centres unmarked) [Example 12, antibiotic L 17046 (2-hydroxy)ethyl ester trifluroacetate]	–	0.063 µg/mL	0.25 µg/mL	1 µg/mL	0.25 µg/mL	0.125 µg/mL	0.125 µg/mL	0.5 µg/mL	128 µg/mL	–
